Legend:
Caspase-3 = assay: Western blot of building block components, Caspase-3 expression in Skmel-28 melanoma cells; format: cell-based
Method: (§1) Skmel-28 melanoma cells were cultured in DMEM/F12 supplemented with 5% Fetal Bovine Serum (FBS) and 1× final concentration of Antibiotics. The cells were grown to 85% confluency and treated with building block components for 3, 6, 12 and 24 hours. The cells were then pelleted and a Western blot analysis was performed.
(§2) The test building block components included L-Phenylylalanine, DL-Phenylyalanine, D-Phenylylalanine, L-Tyrosine, DL-Tyrosine, D-Tyrosine, 4-Hydroxy-phenylpyruvate, phenylacetate, 3-methoxy-4-hydroxymandelate (vanillylmandelate or VMA), vanillic acid, 4-hydroxy-benzoate, pyridoxine, panthenol, mevalonic acid, Acetylglycine, Acetyl-CoA, Farnesyl, and 2,3-Dimethoxy-5-methyl-p-benzoquinone.
(§3) In the Western Blot Analysis, the cells were pelleted in cold PBS, lysed, and the protein levels were quantified using a BCA protein assay. The whole cell lysate was loaded in a 4% loading 12% running Tris-HCl gel. The proteins were then transferred to a nitrocellulose paper then blocked with a 5% milk Tris-buffered solution for 1 hour. The proteins were then exposed to primary antibodies (Bcl-2 and Caspase-3) overnight. The nitrocellulose paper was then exposed to Pico Chemilluminescent for 5 min and the protein expression was recorded. After exposure, actin was quantified using the same method. Using ImageJ the levels of protein expression were quantified. A t-Test was used to analyze for statistical significance.

Bcl-2 = assay: Western blot of building block components, Bcl-2 expression in Skmel-28 melanoma cells; format: cell-based; design: key to Bcl-2 expression: X: a decrease in Bc1-2 expression for most of the concentrations and combinations tested as depicted in the table below; conditions: for Bcl-2 reduction or Caspase-3 increase: 500 nM, 1 μM, 25 μM and 50 μM
Method: as §1, §2, §3

[1] = test system: neonatal fibroblast cells; assay: Cell proliferation assay (coulter counter); format: cell-based; conditions: HB 500 nM, 5 μM, 25 μM, alone or with benzoquinone 25, 50, 100 μM; 24 hours
Method: A cell proliferation assay was also performed on neonatal fibroblast cells. […] The cells were trypsinized and quantified using a coulter counter.

Melanoma cells = assay: Cell proliferation assay (live cell count) of building block combinations; format: cell-based
Method: Cell Proliferation Assay of the Combination of 4-Hydroxy-Benzoate with Benzoquinone: This set of experiments used a cell proliferation assay to assess the effect of combining different building block molecules on cell proliferation.
The first study examined the effect of combining 4-Hydroxy-Benzoate with Benzoquinone. Cells were incubated for 48 hours, after which a cell count was performed for the live cells. Each test group was compared to the control, and each combination groups were compared to Benzoquinone control. The compounds were statistically analyzed for the addition of Benzoquinone.
Additional studies were performed testing additional molar ratios. For the first test 4-Hydroxybenzoic were tested at concentrations of 500 nM, 1 μM, and 50 μM. These concentrations were tested in combination with 2,3-Dimethoxy-5-methyl-p-benzoquinone (Benzo). The concentration of Benzo tested were 25 μM, 50 μM, and 100 μM. Melanoma cells were grown to 80% confluency and seeded in 6 well plates at a concentration of 40K cells per well. The cells were treated with CoQ10, 4-Hydroxybenzoate, Benzo, and a combination of 4-Hydroxybenzoate/Benzo.
A T-test was performed with p<0.05 as statistically significant.

[2] = test system: Succinate Dehydrogenase (SDH) Subunit B; assay: Western blot, Succinate Dehydrogenase B in mitochondrial preparations; format: cell-based; conditions: NCIE0808 Mitopreps, 50 uM, 3 h
Method: The above blots were stripped by incubating for 30 minutes with methanol, followed by two 10 minute washes with TBS-T, then 30 minutes of incubation with Stripping buffer at 50 deg C., and followed by two washes with 100 ml or more of TBS-T for 30′ each. The blots were scanned in laser scanner to check for complete stripping. The blots were activated with methanol for 5 seconds, washed with water for 5 minutes, and TBST for 15 minutes. The blots were blocked for 1 hour with 5% blocking reagent in TBS-T at room temperature and then washed 3 times with TBS-T (1×-15′; 2×5′ each) and probed with the primary antibody for PKM2, SDHB or SDHC in 5% BSA in TBS-T by incubation overnight at 4 deg C. with gentle shaking. The primary antibody for SDHC (ABNOVA H00006391-MO2; antimouse) was at 1:500 dilution. The primary antibody for SDHB was from Abcam ab4714-200; antimouse; at 1:1000 dilution. The primary antibody for Pyruvate Kinase M2 (PKM2) was from Novus Biologicals H00005315-D0IP; antirabbit; at 1:500 dilution. After incubation with primary antibodies, the membranes were washed 3 times with TBS-T (1×-15′; 2×5′ each) and probed with the secondary antibody (SDHB & C antimouse; and PKM2 antirabbit; 1:10,000 dilution) for 1 h on the orbital tilting shaker at room temperature. After 1 h of incubation, the blots were washed 3 times with TBS-T (1×-15′; 2×5′ each) and incubated with ECF reagent for 5 minutes and then each blot scanned with 5100 Fuji Laser scanner at 25 uM resolution, 16 bit, green laser, at 400V and at 500 V.

cancer cells = conditions: cited from earlier work
HDFa cells = assay: Extracellular acidification rate (ECAR), SeaHorse XF analyzer; format: cell-based, human; conditions: HDFa
Excerpt: Environmental influencers (e.g., MIMs or Epi-shifters) may also be identified by changes in cellular energetics. One example of the measurement of cellular energetics are the real-time measures of the consumption of molecular oxygen and/or the change in pH of the media of a cell culture. For example, the ability of a potential epi-shifter to modulate the metabolic state of a cell may be analyzed using, for example, the XF24 Analyzer (Seahorse, Inc.). This technology allows for real time detection of oxygen and pH changes in a monolayer of cells in order to evaluate the bioenergetics of a cell microenvironment. The XF24 Analyzer measures and compares the rates of oxygen consumption (OCR), which is a measure of aerobic metabolism, and extracellular acidification (ECAR), which is a measure of glycolysis, both key indicators of cellular energetics.
(SeaHorse Biosciences Inc, North Billerica, Mass.).
In this experiment, the OCR and extracellular acidification rate (ECAR) in normal cells lines were obtained in the presence and absence of CoQ10 to determine baseline values. It was observed that in its native nutrient environment, the basal OCR rates in normal cells lines are different, and are usually a function of the physiological roles of the cells in the body.
Table 51 below describes the ECAR values (mpH/min) in HDFa cells in the presence or absence of CoQ10 under normoxic and hypoxic conditions at 5.5 mM and 22 mM glucose.

In the case of `NC(Cc1ccccc1)C(=O)O` (racemic) [DL-Phenylalanine], the Caspase-3 expression (Caspase-3; 3 hours, concentration not stated (5, 25, 100 μM tested)) is reported as “statistically significant increase” and the Bcl-2 expression (Bcl-2; 24 hours, concentration not stated (5, 25, 100 μM tested)) is reported as “statistically significant decrease”.
For `NC(Cc1ccc(O)cc1)C(=O)O` (racemic) [DL-Tyrosine], the Caspase-3 expression (Caspase-3; 5 μM and 15 μM, 12 hours) was “increase”, the Bcl-2 expression (Bcl-2; 1 μM and 15 μM, 12 hours) was “statistical decrease” and the Bcl-2 expression (Bcl-2; 5 μM, 24 hour (DL-Tyrosine series)) was “statistical decrease”.
For `O=C(O)C(=O)Cc1ccc(O)cc1` [4-Hydroxy-phenylpyruvate], the Caspase-3 expression (Caspase-3; 5 μM and 15 μM, 12 hours) was “significant increase” and the Bcl-2 expression (Bcl-2; 5 μM and 15 μM, 24 hours) was “significant reduction”.
With `O=C(O)c1ccc(O)cc1` [4-Hydroxybenzoate] the “fibroblast cell number (toxicity in normal cells)” value [1] was “did not show a significant reduction”, the Bcl-2 expression (Bcl-2; 15 μM, 24 hours) was “significant reduction” and the “cell number vs control” value (Melanoma cells; 48 hours incubation) was “significant decrease”. For the same compound, the cell proliferation (Melanoma cells; treatment medium containing HB (500 nM, 1 μM, 50 μM)) was “significant decrease”.
With `CC(=O)SCCNC(=O)CCNC(=O)[C@H](O)C(C)(C)COP(=O)(O)OP(=O)(O)OC[C@H]1O[C@@H](n2cnc3c(N)ncnc32)[C@H](O)[C@@H]1OP(=O)(O)O` [Acetyl-CoA] the “Bcl-2 reduction or Caspase-3 increase” value (Bcl-2) was “no significant observed reduction in Bcl-2 or increase in Caspase-3 expression”.
With `CC(=O)NCC(=O)O` [Acetylglycine] the Bcl-2 expression (Bcl-2; 5 μM and 25 μM, 12 hours) was “significant decrease” and the Bcl-2 expression (Bcl-2; 100 μM, 24 hour) was “significant decrease”.
For `COC1=C(OC)C(=O)C(C/C=C(\C)CC/C=C(\C)CC/C=C(\C)CC/C=C(\C)CC/C=C(\C)CC/C=C(\C)CC/C=C(\C)CC/C=C(\C)CC/C=C(\C)CCC=C(C)C)=C(C)C1=O` [Coezyme Q10], the “Succinate Dehydrogenase B Average Normalized Volume” value [2] was 634.
For `N[C@H](Cc1ccccc1)C(=O)O` [D-Phenylalanine], the Caspase-3 expression (Caspase-3; 5 μM and 100 μM, 6 hours) was “significant increase”, the Bcl-2 expression (Bcl-2; 5 μM and 25 μM, 3 hours) was “significant reduction” and the Bcl-2 expression (Bcl-2; 5 μM, 25 μM and 100 μM, 6 hours) was “significant reduction”.
With `N[C@H](Cc1ccc(O)cc1)C(=O)O` [D-Tyrosine] the Caspase-3 expression (Caspase-3; 1 μM, 12 and 24 hour) was “increase”, the Caspase-3 expression (Caspase-3; 5 μM, 3, 12 and 24 time periods) was “significantly increased” and the Bcl-2 expression (Bcl-2; 5 μM and 15 μM, 12 and 24 hours) was “reduction”.
With `N[C@@H](Cc1ccccc1)C(=O)O` [L-Phenylalanine] the Caspase-3 expression (Caspase-3; 25 μM, 12 hours) was “statistically significant increase”, the Bcl-2 expression (Bcl-2; 5 μM, 3 hr) was “X” and the Bcl-2 expression (Bcl-2; 5 μM, 6 hours) was “statistically significant decrease”. The Bcl-2 expression (Bcl-2; 25 μM, 3 hr) was “X”, the Bcl-2 expression (Bcl-2; 25 μM, 6 hr) was “X” and the Bcl-2 expression (Bcl-2; 25 μM, 12 hours) was “statistically significant decrease”. The Bcl-2 expression (Bcl-2; 100 μM, 3 hours and 12 hours incubation) was “statistically significant decrease”, the Bcl-2 expression (Bcl-2; 100 μM, 3 hr) was “X” and the Bcl-2 expression (Bcl-2; 100 μM, 6 hr) was “X”. For the same compound, the Bcl-2 expression (Bcl-2; 100 μM, 24 hr) was “X”.
With `N[C@@H](Cc1ccc(O)cc1)C(=O)O` [L-Tyrosine] the Caspase-3 expression (Caspase-3; 500 nM, 12 hours) was “statistically significant increase”, the Bcl-2 expression (Bcl-2; 5 μM, 24 hours) was “statistically significant decrease” and the Bcl-2 expression (Bcl-2; 500 μM and 5 μM (so in the source), 24 hours) was “statistically significant decrease”.
In the case of `C[C@@](O)(CCO)CC(=O)O` [Mevalonic Acid], the “Bcl-2 reduction or Caspase-3 increase” value (Bcl-2) is reported as “no significant reduction in Bcl-2 expression or an increase in Caspase-3 expression”.
For `CC(C)(CO)[C@@H](O)C(=O)NCCCO` [Panthenol], the Bcl-2 expression (Bcl-2; 25 μM) was “significant reduction”.
With `Cc1ncc(CO)c(CO)c1O` [Pyridoxine] the Bcl-2 expression (Bcl-2; 24 hours (5, 25, 100 μM tested)) was “significant reduction”.
For `COc1cc(C(O)C(=O)O)ccc1O` (stereo not drawn) [VMA, 3-methoxy-4-hydroxymandelate], the “apoptotic effect (Bcl-2/Caspase-3 Western blot)” value (Bcl-2; 100 nM to 100 μM) was “no statistically significant apoptotic effect” and the “trend of Bcl-2 expression” value (Bcl-2; 100 nM to 100 μM) was “downward trend”.
With `COc1cc(C(=O)O)ccc1O` [Vanillic Acid, Vanillic acid] the Caspase-3 expression (Caspase-3; 15 μM, 24 hours) was “significant increase”, the Bcl-2 expression (Bcl-2; 500 nM and 5 μM, 24 hour) was “significantly reduce” and the Bcl-2 expression (Bcl-2; 15 μM, 3 hours) was “reduction”.
For `C=C1/C(=C\C=C2/CCC[C@]3(C)[C@@H]([C@H](C)CCCC(C)(C)O)CC[C@@H]23)C[C@@H](O)C[C@@H]1O` [Vitamin D3, 1α, 25-dihydroxyvitamin D3], the “expression of anti-apoptotic proteins BCL2 and BCL-XL” value (cancer cells; reported (Deeb et al. 2007)) is listed as “repressing the expression”, the “expression of pro-apoptotic proteins (BAX, BAK and BAD)” value (cancer cells; reported (Deeb et al. 2007)) is listed as “inducing the expression” and the “gene transcription of cyclin-dependent kinase inhibitor p21WAFI/CIPI” value (cancer cells; reported (Deeb et al. 2007)) is listed as “induce gene transcription”. The “expression of vascular endothelial growth factor (VEGF)” value (cancer cells; reported (Masuda and Jones, 2006)) was “inhibit the expression”.
Work on `COC1=C(OC)C(=O)C(C/C=C(\C)CC/C=C(\C)CC/C=C(\C)CC/C=C(\C)CC/C=C(\C)CC/C=C(\C)CC/C=C(\C)CC/C=C(\C)CC/C=C(\C)CCC=C(C)C)=C(C)C1=O` [compound 31510] yielded an ECAR (HDFa cells; Hypoxia (5.5 mM), 50 μM) of 5 mpH/min, an ECAR (HDFa cells; Hypoxia (5.5 mM), 100 μM) of 5 mpH/min and an ECAR (HDFa cells; Hypoxia (22 mM), 50 μM) of 6 mpH/min. It also gave an ECAR (HDFa cells; Hypoxia (22 mM), 100 μM) of 8 mpH/min, an ECAR (HDFa cells; Normoxia (5.5 mM), 50 μM) of 6 mpH/min and an ECAR (HDFa cells; Normoxia (5.5 mM), 100 μM) of 6 mpH/min. It also gave an ECAR (HDFa cells; Normoxia (22 mM), 50 μM) of 5 mpH/min and an ECAR (HDFa cells; Normoxia (22 mM), 100 μM) of 5 mpH/min.
